The results in this text go back to publication PMC12856317, “A reversible feedback mechanism regulating mitochondrial heme synthesis” (The Journal of Biological Chemistry, 2025).

Residue numbers refer to the chain shown, from its start.

The Kd is a measure of binding affinity in units of concentration. The low end stands for tighter binding, the high end for weaker binding.

Test in all cases: Isothermal titration calorimetry, hemin-protein interaction
What all share (assay type): binding
Details in all cases: ITC, 25 °C

Test [1] deals with T1, human ALAS2 ΔC (residues 54–547) (Homo sapiens, UniProt P22557).
T1 construct: a truncation without the C-terminal CXXC motif (ΔC, residues 54–547); His6-SUMO (N, cleaved yes); made in house; host or cells: Escherichia coli BL21-Codon Plus (DE3)-RIL
T1 sequence (P22557 54-547): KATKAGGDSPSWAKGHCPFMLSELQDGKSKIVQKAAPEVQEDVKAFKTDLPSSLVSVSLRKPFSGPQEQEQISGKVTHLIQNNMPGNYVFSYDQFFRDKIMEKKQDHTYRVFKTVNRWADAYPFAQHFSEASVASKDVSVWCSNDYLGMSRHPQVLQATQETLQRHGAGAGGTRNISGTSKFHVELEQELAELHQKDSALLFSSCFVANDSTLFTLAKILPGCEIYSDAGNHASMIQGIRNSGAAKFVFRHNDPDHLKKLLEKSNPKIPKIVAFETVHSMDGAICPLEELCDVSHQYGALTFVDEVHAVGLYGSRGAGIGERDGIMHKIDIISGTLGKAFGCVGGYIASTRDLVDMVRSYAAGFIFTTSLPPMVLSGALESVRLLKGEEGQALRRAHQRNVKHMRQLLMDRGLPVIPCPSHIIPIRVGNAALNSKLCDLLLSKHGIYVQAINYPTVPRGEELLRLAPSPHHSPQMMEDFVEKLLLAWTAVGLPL
The procedure: (§1) Binding curves of the hemin-protein interaction were determined using Nano-ITC instrument (TA instruments) at 25 °C. Hemin was dissolved in 1 M NaOH and autoclaved to prepare a stock solution of 746 μM, ε385nm = 58,440 M^−1 cm^−1. The stock solution was diluted to 1.5 μM in titration buffer containing 25 mM Hepes, pH 7, 150 mM KCl, and 0.5 mM TCEP. Protein samples were dialyzed into the titration buffer and diluted to a final concentration of 40 μM. Fixed volumes of protein were injected at 200-s intervals into the cell containing hemin. An A + B hetero-association model was used to determine the thermodynamic parameters for each variant. Data were integrated and analyzed using NITPIC and SEDPHAT and visualized using GUSSI ([71], [72], [73]).

In test [2] the target is T2, WT human ALAS2 (residues 54–587) (Homo sapiens, UniProt P22557).
T2 construct: His6-SUMO (N, cleaved yes); made in house; host or cells: Escherichia coli BL21-Codon Plus (DE3)-RIL
T2 sequence (P22557 54-587): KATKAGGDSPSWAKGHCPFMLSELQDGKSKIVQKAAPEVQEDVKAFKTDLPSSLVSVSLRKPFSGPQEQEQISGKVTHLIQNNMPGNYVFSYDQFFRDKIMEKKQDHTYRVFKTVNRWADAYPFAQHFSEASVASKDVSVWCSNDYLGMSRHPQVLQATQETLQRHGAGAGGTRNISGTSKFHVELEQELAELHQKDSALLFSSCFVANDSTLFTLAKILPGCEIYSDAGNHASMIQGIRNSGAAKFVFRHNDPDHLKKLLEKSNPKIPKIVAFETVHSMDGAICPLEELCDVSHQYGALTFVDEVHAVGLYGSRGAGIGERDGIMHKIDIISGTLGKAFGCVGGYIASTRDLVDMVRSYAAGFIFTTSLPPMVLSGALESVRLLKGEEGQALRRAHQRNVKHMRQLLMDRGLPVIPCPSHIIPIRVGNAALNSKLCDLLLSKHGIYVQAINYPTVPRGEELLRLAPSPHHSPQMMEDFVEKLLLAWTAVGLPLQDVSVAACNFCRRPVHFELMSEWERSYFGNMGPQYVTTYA
The procedure:
as §1

Test [3] addresses T3, human ALAS2 Cys-mut (C70A/C555A/C558A) (Homo sapiens, UniProt P22557, C555A/C558A/C70A).
T3 construct: Site-directed mutagenesis was performed on the mature ALAS2 (residues 54–587) construct to generate truncations and cysteine mutants; His6-SUMO (N, cleaved yes); made in house; host or cells: Escherichia coli BL21-Codon Plus (DE3)-RIL
T3 sequence (P22557 54-587 C70A/C555A/C558A): T2 sequence (P22557 54-587) with C17A, C502A, C505A
The procedure:
as §1

Setting [4] is: 95% confidence interval in brackets.

As for ferric chloride heme [hemin], the ΔG is -8.94 kcal/mol in test [1], -9.05 kcal/mol in test [2] and -8.48 kcal/mol in test [3]. Further, the ΔS in test [1] is on record as −1.80 kcal/mol K; in test [2] it was −1.25 kcal/mol K; in test [3], −1.18 kcal/mol K. The Kd in test [1] (setting [4]) is 279 nM; in test [2] (setting [4]) it was 232 nM; in test [2] (95% confidence interval in brackets, listed as heme) it was roughly 230 nM; in test [3] (setting [4]) it was 610 nM. For the same substance, the ΔH is −544 [−604, −499] kcal/mol in test [1] (setting [4]); −382 [−440, −342] kcal/mol in test [2] (setting [4]); −361 [−561, −280] kcal/mol in test [3] (setting [4]).
